Among the data in US12275731B2, “Azaindole inhibitors of wild-type and mutant forms of LRRK2” (DANA-FARBER CANCER INSTITUTE, INC., priority 2018, dated 2025) are remaining binding values, retold here.

Structures are written as SMILES.

Holding throughout (assay): KinomeScan profiling
What all share (assay type): binding

The target of one assay is EGFR(L858R) (Homo sapiens, UniProt P00533, L858R). The note with it: read-out: % control. In short, it runs like this: (§1)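 The panel spans 468 kinases, and each inventive compound was applied at 1 μM from DMSO. Lower % control means stronger binding; the activity cut-off is set at less than 35%.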
The next assay deals with CAMK1G (Homo sapiens, UniProt Q96NX5). The note with it: read-out: % control. Summed up: as §1
In the next assay the target is T1, JNK3 (Homo sapiens, UniProt P53779).
T1 construct: purchased KinomeScan®
The note with it: JNK3, 1 μM; read-out: % control. Summed up: as §1

The next assay deals with CDK3 (Homo sapiens, UniProt Q00526). The note with it: CDK3, 1 μM; read-out: % control. In short, it runs like this:
as §1

The target in another assay is PKN1 (Homo sapiens, UniProt Q16512). The note with it: PKN1, 1 μM; read-out: % control. Summed up: as §1
The target of the next assay is NEK7 (Homo sapiens, UniProt Q8TDX7). Conditions: NEK7, 1 μM; read-out: % control. In short, it runs like this:
as §1

In another assay the target is T2, PIP5K1C (Homo sapiens, UniProt O60331).
T2 construct: purchased KinomeScan® (panel service)
The note with it: read-out: % control. Summed up: as §1

The next assay deals with FGFR3(G697C) (Homo sapiens, UniProt P22607, G697C). The note with it: read-out: % control. Summed up:
as §1

The next assay deals with T3, MAP4K2 (Homo sapiens, UniProt Q12851).
T3 sequence (Q12851 1-820): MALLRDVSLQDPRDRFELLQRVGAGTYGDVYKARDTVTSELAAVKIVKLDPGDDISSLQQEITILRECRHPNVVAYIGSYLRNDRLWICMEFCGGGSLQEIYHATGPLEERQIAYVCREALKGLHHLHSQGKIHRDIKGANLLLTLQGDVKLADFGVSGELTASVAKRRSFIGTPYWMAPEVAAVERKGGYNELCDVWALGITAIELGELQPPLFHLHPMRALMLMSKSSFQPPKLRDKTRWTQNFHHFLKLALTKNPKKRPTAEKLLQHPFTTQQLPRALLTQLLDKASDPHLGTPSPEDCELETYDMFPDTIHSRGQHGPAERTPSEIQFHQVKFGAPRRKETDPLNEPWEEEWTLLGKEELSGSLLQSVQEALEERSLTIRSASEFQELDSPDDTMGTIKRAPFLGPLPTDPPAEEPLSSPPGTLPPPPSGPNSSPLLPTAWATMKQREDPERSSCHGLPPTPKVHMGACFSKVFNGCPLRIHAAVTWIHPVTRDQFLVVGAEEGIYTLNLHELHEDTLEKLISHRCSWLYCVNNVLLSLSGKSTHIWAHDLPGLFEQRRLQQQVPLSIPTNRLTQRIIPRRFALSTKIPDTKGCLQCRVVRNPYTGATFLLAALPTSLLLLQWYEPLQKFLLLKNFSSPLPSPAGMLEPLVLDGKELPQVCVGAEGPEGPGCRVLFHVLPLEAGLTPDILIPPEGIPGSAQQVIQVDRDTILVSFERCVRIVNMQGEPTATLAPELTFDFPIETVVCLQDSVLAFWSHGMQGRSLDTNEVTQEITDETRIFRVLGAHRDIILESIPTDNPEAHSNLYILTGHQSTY
Conditions: MAP4K2, 1 μM; read-out: % control. In short, it runs like this:
as §1

The next assay has as its target T4, TYRO3 (Homo sapiens, UniProt Q06418).
T4 sequence (Q06418 41-890): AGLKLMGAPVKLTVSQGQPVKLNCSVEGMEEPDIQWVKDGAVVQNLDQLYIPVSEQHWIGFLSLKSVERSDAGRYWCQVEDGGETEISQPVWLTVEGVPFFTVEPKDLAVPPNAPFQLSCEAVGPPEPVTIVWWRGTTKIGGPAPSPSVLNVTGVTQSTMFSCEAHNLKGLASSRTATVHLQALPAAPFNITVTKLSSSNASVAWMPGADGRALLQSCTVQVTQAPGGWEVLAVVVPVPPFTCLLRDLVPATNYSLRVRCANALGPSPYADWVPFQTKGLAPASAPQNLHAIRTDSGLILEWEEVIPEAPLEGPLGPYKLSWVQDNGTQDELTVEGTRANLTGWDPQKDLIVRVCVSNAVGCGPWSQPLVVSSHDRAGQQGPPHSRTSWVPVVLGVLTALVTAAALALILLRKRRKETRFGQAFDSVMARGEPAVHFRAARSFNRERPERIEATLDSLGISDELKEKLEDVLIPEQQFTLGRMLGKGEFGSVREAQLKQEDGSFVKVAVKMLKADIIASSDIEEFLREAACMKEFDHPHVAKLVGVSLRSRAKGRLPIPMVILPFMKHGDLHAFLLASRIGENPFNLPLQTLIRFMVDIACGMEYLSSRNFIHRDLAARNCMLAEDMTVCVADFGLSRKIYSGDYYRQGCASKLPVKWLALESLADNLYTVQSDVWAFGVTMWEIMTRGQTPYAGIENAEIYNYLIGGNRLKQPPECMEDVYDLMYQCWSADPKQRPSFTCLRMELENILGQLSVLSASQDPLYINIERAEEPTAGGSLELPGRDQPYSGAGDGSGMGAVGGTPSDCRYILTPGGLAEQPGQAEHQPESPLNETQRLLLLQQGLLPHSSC
The note with it: TYRO3, 1 μM; read-out: % control. Summed up: as §1

In another assay the target is PDGFRA (Homo sapiens, UniProt P16234). The note with it: read-out: % control. Summed up: as §1
Chain of PDGFRA (P16234 24-1089): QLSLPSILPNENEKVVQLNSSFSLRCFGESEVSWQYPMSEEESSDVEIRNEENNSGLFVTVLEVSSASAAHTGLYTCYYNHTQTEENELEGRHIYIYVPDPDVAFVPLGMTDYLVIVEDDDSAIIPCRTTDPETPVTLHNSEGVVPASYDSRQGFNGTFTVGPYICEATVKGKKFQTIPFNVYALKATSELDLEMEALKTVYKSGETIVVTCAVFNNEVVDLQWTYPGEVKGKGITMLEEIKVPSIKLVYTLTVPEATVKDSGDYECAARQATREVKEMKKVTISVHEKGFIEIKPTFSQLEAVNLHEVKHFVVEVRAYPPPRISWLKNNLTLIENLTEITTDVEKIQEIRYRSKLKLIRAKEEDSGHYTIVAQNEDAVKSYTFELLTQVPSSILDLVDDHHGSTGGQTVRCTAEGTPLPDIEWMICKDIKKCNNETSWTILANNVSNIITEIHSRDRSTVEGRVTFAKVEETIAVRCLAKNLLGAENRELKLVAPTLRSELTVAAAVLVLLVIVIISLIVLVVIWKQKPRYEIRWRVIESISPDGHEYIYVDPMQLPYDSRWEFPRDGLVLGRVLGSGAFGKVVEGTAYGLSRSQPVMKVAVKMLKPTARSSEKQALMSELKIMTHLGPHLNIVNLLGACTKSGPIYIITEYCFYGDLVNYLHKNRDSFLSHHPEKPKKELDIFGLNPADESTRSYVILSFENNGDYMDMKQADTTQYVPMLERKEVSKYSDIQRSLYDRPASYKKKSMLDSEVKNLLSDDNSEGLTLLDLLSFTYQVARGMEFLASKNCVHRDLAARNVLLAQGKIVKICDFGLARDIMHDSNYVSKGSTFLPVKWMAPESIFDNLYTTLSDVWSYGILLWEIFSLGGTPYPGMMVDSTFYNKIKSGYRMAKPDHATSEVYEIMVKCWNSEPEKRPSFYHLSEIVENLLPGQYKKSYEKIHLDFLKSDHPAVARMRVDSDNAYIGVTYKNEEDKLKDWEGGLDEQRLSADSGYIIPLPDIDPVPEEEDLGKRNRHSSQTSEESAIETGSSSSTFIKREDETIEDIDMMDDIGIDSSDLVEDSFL

T1 sequence (P53779 whole entry): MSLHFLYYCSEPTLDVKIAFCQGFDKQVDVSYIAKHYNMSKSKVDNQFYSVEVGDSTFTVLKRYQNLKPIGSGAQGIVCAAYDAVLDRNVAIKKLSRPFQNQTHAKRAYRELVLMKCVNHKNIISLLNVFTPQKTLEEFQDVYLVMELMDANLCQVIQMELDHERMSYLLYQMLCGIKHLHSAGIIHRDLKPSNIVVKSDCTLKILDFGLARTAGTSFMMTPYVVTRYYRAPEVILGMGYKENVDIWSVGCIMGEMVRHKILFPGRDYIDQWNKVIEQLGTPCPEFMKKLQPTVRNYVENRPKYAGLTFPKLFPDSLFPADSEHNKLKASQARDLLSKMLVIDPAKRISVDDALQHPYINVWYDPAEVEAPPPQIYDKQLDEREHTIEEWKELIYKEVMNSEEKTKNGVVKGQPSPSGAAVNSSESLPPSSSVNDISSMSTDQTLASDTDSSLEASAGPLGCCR
Chain of PKN1 (Q16512 whole entry): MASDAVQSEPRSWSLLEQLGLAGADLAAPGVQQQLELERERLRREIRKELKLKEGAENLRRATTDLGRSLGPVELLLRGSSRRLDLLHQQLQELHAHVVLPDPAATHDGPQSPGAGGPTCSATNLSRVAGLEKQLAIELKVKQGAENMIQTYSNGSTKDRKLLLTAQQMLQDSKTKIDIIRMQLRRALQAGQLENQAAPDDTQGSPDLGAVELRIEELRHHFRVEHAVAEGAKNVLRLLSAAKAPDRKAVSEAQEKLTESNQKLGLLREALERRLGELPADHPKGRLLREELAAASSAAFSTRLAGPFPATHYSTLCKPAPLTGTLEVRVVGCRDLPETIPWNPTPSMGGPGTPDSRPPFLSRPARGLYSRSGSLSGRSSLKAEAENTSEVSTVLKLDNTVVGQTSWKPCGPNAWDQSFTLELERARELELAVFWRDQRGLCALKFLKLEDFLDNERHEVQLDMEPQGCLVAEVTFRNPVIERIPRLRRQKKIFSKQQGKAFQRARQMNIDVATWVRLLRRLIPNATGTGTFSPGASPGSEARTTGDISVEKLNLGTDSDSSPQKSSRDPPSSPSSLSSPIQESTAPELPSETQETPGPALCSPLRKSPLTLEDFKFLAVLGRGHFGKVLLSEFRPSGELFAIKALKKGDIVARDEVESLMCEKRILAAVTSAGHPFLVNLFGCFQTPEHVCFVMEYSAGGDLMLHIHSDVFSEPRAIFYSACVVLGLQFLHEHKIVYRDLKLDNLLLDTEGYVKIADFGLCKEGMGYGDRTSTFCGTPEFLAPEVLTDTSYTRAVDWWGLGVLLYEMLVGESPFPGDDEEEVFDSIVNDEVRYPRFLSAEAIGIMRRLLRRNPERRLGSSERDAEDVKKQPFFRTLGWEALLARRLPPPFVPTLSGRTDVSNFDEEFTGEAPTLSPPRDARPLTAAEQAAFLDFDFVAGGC
Chain of FGFR3(G697C) (P22607 23-806 G697C): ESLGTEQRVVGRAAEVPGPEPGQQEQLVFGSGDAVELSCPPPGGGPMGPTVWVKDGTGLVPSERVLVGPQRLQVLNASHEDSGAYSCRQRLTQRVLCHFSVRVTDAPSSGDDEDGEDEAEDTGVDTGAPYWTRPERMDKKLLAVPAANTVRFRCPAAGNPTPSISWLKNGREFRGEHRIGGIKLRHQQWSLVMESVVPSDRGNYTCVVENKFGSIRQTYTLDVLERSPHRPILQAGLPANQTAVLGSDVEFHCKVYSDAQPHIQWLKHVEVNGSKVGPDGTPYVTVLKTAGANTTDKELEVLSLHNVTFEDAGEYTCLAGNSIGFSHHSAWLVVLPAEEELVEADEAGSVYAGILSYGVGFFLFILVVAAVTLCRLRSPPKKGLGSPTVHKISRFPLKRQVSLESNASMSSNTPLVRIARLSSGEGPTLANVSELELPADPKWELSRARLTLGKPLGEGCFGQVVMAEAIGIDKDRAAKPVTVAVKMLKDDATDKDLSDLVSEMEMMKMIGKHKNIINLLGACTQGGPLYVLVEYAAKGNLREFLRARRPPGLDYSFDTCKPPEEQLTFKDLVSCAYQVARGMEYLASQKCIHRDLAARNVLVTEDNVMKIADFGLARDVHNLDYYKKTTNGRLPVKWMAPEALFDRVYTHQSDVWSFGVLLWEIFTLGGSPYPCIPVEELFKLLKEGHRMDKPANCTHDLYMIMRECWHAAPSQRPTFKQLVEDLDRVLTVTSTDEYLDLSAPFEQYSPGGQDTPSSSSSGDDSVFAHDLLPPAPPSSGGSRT
Chain of EGFR(L858R) (P00533 25-1210 L858R): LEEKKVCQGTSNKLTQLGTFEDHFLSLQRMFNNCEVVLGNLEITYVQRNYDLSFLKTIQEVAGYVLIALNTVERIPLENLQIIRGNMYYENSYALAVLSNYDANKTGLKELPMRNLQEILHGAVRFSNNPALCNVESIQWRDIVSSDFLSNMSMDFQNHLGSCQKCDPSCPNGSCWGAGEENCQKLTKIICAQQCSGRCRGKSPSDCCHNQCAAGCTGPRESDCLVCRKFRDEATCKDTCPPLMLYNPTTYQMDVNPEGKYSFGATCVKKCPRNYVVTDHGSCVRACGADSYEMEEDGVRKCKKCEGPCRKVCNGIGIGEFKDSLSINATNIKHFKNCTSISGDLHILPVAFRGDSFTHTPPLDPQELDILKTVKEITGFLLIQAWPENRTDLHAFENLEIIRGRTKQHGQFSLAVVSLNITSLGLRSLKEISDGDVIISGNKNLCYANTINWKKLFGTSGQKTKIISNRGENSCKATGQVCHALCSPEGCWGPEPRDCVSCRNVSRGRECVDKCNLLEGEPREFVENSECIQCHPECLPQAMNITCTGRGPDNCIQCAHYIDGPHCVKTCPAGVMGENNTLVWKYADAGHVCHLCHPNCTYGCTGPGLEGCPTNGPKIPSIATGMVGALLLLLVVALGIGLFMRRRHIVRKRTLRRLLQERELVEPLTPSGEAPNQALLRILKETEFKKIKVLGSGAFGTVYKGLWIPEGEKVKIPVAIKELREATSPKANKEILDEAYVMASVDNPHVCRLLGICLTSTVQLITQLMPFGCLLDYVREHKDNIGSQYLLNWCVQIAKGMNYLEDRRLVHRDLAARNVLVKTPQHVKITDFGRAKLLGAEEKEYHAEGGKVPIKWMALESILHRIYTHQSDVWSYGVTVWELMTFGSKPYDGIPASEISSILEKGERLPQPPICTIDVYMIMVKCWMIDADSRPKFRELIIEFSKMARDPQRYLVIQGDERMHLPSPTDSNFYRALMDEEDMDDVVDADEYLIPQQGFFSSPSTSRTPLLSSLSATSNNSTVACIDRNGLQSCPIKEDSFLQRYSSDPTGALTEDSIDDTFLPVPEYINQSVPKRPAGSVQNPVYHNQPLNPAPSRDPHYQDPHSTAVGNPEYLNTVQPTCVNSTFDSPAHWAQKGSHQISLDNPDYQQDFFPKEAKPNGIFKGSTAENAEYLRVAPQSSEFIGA
Chain of CDK3 (Q00526 whole entry): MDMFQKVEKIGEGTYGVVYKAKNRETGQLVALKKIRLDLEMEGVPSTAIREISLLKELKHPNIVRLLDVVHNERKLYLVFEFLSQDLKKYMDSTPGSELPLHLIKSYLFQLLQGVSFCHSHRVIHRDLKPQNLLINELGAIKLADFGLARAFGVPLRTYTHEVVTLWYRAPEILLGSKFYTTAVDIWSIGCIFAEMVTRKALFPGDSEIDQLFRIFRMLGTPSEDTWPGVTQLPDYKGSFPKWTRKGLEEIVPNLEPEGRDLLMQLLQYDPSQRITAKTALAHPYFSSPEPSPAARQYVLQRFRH
Chain of NEK7 (Q8TDX7 whole entry): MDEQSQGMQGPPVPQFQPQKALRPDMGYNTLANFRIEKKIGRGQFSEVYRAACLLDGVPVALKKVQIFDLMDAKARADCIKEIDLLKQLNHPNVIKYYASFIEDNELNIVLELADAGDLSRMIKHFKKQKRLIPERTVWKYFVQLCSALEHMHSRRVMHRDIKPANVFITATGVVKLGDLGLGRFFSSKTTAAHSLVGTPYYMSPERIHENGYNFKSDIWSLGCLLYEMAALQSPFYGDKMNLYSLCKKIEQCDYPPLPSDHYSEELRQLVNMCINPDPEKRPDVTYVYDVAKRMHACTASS

As for `CNc1c(-c2ccc(C(=O)N3CCC(N4CCOCC4)CC3)cc2)cnc2[nH]cc(Cl)c12` [Compound 96, (4-(3-chloro-4-(methylamino)-1H-pyrrolo[2,3-b]pyridin-5-yl)phenyl)(4-morpholinopiperidin-1-yl)methanone], the remaining binding at 1 µM on EGFR(L858R) was 100%; on CAMK1G it was 98%; on JNK3, 0.35%; at CDK3, 89%; at PKN1, 95%; at NEK7, 100%. Also, the remaining binding at 1 µM on PIP5K1C amounted to 49%; at FGFR3(G697C) it was 55%; on MAP4K2 it was 1.1%; at TYRO3, 100%; on PDGFRA it was 45%.
Turning to `O=C(c1ccc(-c2cnc3[nH]cc(Cl)c3c2NC2CCCC2)cc1)N1CCC(N2CCOCC2)CC1` [Compound 101, (4-(3-chloro-4-(cyclopentylamino)-1H-pyrrolo[2,3-b]pyridin-5-yl)phenyl)(4-morpholinopiperidin-1-yl)methanone], the remaining binding at 1 µM at EGFR(L858R) was determined as 96%; on CAMK1G, 93%; on JNK3 it was 7.6%; on CDK3 it was 97%; at PKN1, 100%; on NEK7, 95%. The remaining binding at 1 µM on PIP5K1C is 57%; at FGFR3(G697C) it was 74%; at MAP4K2, 20%; at TYRO3, 56%; at PDGFRA, 92%.
For the compound `CNc1c(-c2cnn([C@H]3CCN(C(C)=O)C[C@@H]3F)c2)cnc2[nH]cc(Cl)c12` [Compound 77, 1-((3S,4S)-4-(4-(3-chloro-4-(methylamino)-1H-pyrrolo[2,3-b]pyridin-5-yl)-1H-pyrazol-1-yl)-3-fluoropiperidin-1-yl)ethan-1-one], the remaining binding at 1 µM at EGFR(L858R) was determined as 100%; on CAMK1G it was 100%; on JNK3 it was 1.9%; at CDK3, 95%; at PKN1, 100%; on NEK7, 100%. Also, the remaining binding at 1 µM on PIP5K1C came out at 37%; on FGFR3(G697C), 51%; at MAP4K2, 20%; on TYRO3, 100%; at PDGFRA, 11%.
